From US20220265817A1, “THERAPEUTIC COMPOSITIONS AND METHODS FOR TREATING HEPATITIS B” (priority 2017, published 2022)
pIC50: −log10 of the molar value. [UNA] = unlocked nucleic acid; m = 2'-O-methyl; r = 2'-OH (RNA)

Tested on: HBV genome
Test: siRNA IC50 (Table A)
Parameters: species or system Hepatitis B virus

Substance | pIC50
6m: siRNA duplex SEQ ID NO: 11 and 12 targeting the HBV genome (chain 1 CUGGCUCAGUUUACUAGUGUU; chain 2 CACUAGUAAACUGAGCCAGUU; chain 1: sugars from the 5' end [UNA]mmmrrrrrrrrrrmrmrrr[UNA], backbone not given here; chain 2: sugars from the 5' end rrrrrmrrrrrrmrmrrrrrr, backbone not given here) [Compound 6m] | 10.30
7m: siRNA duplex SEQ ID NO: 13 and 14 targeting the HBV genome (chain 1 CCGUGUGCACUUCGCUUCAUU; chain 2 UGAAGCGAAGUGCACACGGUU; chain 1: sugars from the 5' end [UNA]rrrmmrrrrrmrrrmrrr[UNA][UNA], backbone not given here; chain 2: sugars from the 5' end rrrrrrrrrrrmrrrrrmr[UNA][UNA], backbone not given here) [Compound 7m] | 10.22
8m: siRNA duplex SEQ ID NO: 15 and 16 targeting the HBV genome (chain 1 GCUCAGUUUACUAGUGCCAUU; chain 2 UGGCACUAGUAAACUGAGCUU; chain 1: sugars from the 5' end [UNA]rmrrmrrrrrmrmrrrrr[UNA][UNA], backbone not given here; chain 2: sugars from the 5' end r14 m1 r4 [UNA]2, backbone not given here) [Compound 8m] | 9.62
9m: siRNA duplex SEQ ID NO: 17 and 18 targeting the HBV genome (chain 1 AGGUAUGUUGCCCGUUUGUUU; chain 2 ACAAACGGGCAACAUACCUUU; chain 1: sugars from the 5' end [UNA]mrmrrrmrrrrrmrmrrr[UNA][UNA], backbone not given here; chain 2: sugars from the 5' end rrrrrrmrrrrrrrmrrrm[UNA][UNA], backbone not given here) [Compound 9m] | 9.89
10m: siRNA duplex SEQ ID NO: 19 and 20 targeting the HBV genome (chain 1 GCCGAUCCAUACUGCGGAAUU; chain 2 UUCCGCAGUAUGGAUCGGCUU; chain 1: sugars from the 5' end [UNA]rrmrmrrrrrrmmrmmrr[UNA][UNA], backbone not given here; chain 2: sugars from the 5' end rrrrrrrmrrrrmrrrrmr[UNA][UNA], backbone not given here) [Compound 10m] | 9.47
11m: siRNA duplex SEQ ID NO: 21 and 22 targeting the HBV genome (chain 1 GCCGAUCCAUACUGCGGAAUU; chain 2 UUCCGCAGUAUGGAUCGGCUU; chain 1: sugars from the 5' end [UNA]rrmrmrrrrrrmmrmmrrr[UNA], backbone not given here; chain 2: sugars from the 5' end rrrrrrrmrrrrmrrrrmrrr, backbone not given here) [Compound 11m] | 9.51
12m: siRNA duplex SEQ ID NO: 23 and 24 targeting the HBV genome (chain 1 GCCGAUCCAUACUGCGGAAUU; chain 2 UUCCGCAGUAUGGAUCGGCUU; chain 1: sugars from the 5' end [UNA]rrmrmrrrrrrmmrrmrrr[UNA], backbone not given here; chain 2: sugars from the 5' end rrrrrrrmrrrrmrrrrmrrr, backbone not given here) [Compound 12m] | 9.80
13m: siRNA duplex SEQ ID NO: 25 and 26 targeting the HBV genome (chain 1 GCCGAUCCAUACUGCGGAAUU; chain 2 UUCCGCAGUAUGGAUCGGCUU; chain 1: sugars from the 5' end [UNA]rrmrmrrrrrrmmrrmrr[UNA][UNA], backbone not given here; chain 2: sugars from the 5' end rrrrrrrmrrrrmrrrrmr[UNA][UNA], backbone not given here) [Compound 13m] | 9.70
14m: siRNA duplex SEQ ID NO: 27 and 28 targeting the HBV genome (chain 1 GCUCAGUUUACUAGUGCCAUU; chain 2 UGGCACUAGUAAACUGAGCUU; chain 1: sugars from the 5' end [UNA]rmrrmrrrrrmrmrrrrrr[UNA], backbone not given here; chain 2: sugars from the 5' end r14 m1 r6, backbone not given here) [Compound 14m] | 9.80
15m: siRNA duplex SEQ ID NO: 29 and 30 targeting the HBV genome (chain 1 CUGGCUCAGUUUACUAGUGUU; chain 2 CACUAGUAAACUGAGCCAGUU; chain 1: sugars from the 5' end [UNA]mmrrmrrrrrmrrrrrrr[UNA][UNA], backbone not given here; chain 2: sugars from the 5' end r14 m1 r4 [UNA]2, backbone not given here) [Compound 15m] | 9.77
